Counter-ions that a name gives are not always drawn.

For the test, the system named is BRAFi-resistant A375VR cells. The test can be described thus: Clonogenic survival of BRAFi-resistant melanoma cells. The format is cell-based, human. To be noted: in combination with 5 μM vemurafenib, up to 6 days, PBA as low as 500 μM. The procedure: FIGS. 13A-13B. PBA treatment promotes cell death of BRAFi-resistant metastatic melanoma and upregulates MCR1 expression in a time dpe. (A) BRAFi-resistant A375VR cells were incubated with 5 μM vemurafenib in combination with ER-stress-relieving drug 4-PBA for up to 6 days. […] (B) Flow cytometry analysis of MCR1 expression in A2058 and A375 malignant melanoma cells. Cells were treated with 3 mmole 4-PBA for 4 h and 24 h (n=3). The treated and untreated (control) cells were stained with anti-MC1R-phycoerythrin (PE) monoclonal antibody conjugate. Fluorescence intensity was corrected by auto-fluorescence of cells without staining and data were expressed as relative fluorescence intensity (IF) (vs. control)±SD.
Accumulation of misfolded-proteins causes upregulation and detachment of ER resident protein GRP78 from ER sensors proteins—activating the unfolded protein response (UPR) and downstream signaling pathways (including autophagy). […] Thus, the potential for a pharmacological treatment that would sensitize BRAFi-resistant cells to BRAFi by reducing ER-stress was considered. BRAFi-resistant A375VR melanoma cells were incubated with BRAFi vemurafenib alone and in combination with ER-stress relieving PBA.

For the molecule `O=C(O)CCCc1ccccc1` [PBA, 4-phenylbutyric acid, sodium salt], the clonogenic cell death is given as approximately 90%.

The values are drawn from patent US11576987B2, “Compositions and methods of treating melanoma” (UNIVERSITY OF IOWA RESEARCH FOUNDATION, priority 2016, dated 2023).
